Literature values, collected in patent US20100210586A1, “POMEGRANATE EXTRACTS, NUTRITIONAL PRODUCTS CONTAINING THEM AND THEIR USES” (PROBELTE PHARMA, S.A., priority 2007, published 2010).

Details: oral

## O=c1oc2c(O)c(O)cc3c(=O)oc4c(O)c(O)cc1c4c23 [ellagic acid]
  absorption when administered orally: poorly absorbed
